Results on 25 molecules are retold here after patent publication US7250442B2, “Dihydroindol-2-one derivatives as steroid hormone nuclear receptor modulators” (Eli Lilly and Company, priority 2003, dated 2007).

A value given as a limit tells only on which side of the number the result lay.

This assay deals with T1, glucocorticoid receptor (Homo sapiens, UniProt P04150).
T1 construct: host or cells: A549 human lung epithelial cells (sonicated cell extract)
T1 sequence (P04150 1-777): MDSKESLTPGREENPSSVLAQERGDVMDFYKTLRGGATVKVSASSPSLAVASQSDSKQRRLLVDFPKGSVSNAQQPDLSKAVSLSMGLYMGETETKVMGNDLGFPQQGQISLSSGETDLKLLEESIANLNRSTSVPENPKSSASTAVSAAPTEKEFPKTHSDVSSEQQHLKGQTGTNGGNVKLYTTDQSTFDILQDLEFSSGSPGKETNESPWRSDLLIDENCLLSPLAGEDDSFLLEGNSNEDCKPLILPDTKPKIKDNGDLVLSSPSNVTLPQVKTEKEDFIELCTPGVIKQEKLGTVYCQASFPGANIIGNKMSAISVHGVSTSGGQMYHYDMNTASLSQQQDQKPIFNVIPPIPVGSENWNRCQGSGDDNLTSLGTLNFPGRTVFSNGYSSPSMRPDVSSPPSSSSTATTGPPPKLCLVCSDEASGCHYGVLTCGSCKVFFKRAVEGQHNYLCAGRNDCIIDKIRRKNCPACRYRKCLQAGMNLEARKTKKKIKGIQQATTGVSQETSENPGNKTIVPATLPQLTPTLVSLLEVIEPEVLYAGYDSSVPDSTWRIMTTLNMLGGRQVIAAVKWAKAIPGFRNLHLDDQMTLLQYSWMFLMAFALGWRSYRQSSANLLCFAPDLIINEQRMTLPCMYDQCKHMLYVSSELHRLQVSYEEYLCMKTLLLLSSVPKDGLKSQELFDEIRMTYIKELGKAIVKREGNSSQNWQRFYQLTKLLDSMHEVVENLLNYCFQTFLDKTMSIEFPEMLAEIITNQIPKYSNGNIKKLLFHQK
As to the kind of experiment: Glucocorticoid Receptor Binding Assay ([3H]-dexamethasone displacement, A549 cell extract). The following applies: A549 human lung epithelial cell extract, 1.86 nM [3H]-dexamethasone; read-out: GR Ki. The procedure: Glucocorticoid Receptor Binding Assay:
A549 human lung epithelial cells (ATCC) are grown at a scale where gram quantity cell pellets are obtained. Harvested cell pellets are washed twice in cold phosphate buffered saline, centrifuged, and resuspended in cold assay binding buffer. The assay binding buffer consists of 10% glycerol, 50 mM Tris-HCl (pH7.2), 75 mM sodium chloride, 1.5 mM magnesium chloride, 1.5 mM EDTA, and 10 mM sodium molybdate. Cell suspensions were lysed via sonication, centrifuged, and the “extract” supernatant is snap frozen and stored at −80C. until needed.
GR binding assays are performed in a final volume of 140 ul containing 50-200 ug of A549 cell extract and 1.86 nM [^3H]-dexamethasone (Amersham) plus varying concentrations of test compound or vehicle. Briefly, assays are prepared at RT in 96-well Fisher 3356 plates, each well containing 100 ul of A549 cell extract, 20 ul of [^3H]-dexamethasone, and 20 ul of test compound/vehicle. Incubations are carried out at 4 degrees celsius for 16 hours. After incubation, 70 ul of 3× dextran-coated charcoal solution is added to each reaction, mixed, and incubated for 8 minutes at RT. 3×-dextran-coated charcoal solution consists of 250 ml assay binding buffer, 3.75 g Norit A charcoal (Sigma), and 1.25 g dextran T-70 (Amersham). Charcoal/unbound radioligand complexes are removed by centrifugation of the plate and 140 ul of supernatant from each well is transferred to another 96 well Optiplate (Packard Instruments). 200 ul of Microscint-20 scinillant (Packard Instruments) is added to each well and amount of receptor bound radioligand is determined using Packard Instruments TopCount instrument.
IC50 values, defined as the concentration of test compound required to decrease [^3H]-dexamethasone binding by 50%, are then determined. Ki values for each respective test compound can then be calculated by application of the Cheng-Prusoff equation as described in Cheng et al., Relationship Between The Inhibition Constant (Ki) and The Concentration of Inhibitor Which Causes 50% Inhibition (IC50) of an Enzymatic Reaction, Biochem. Pharmacol., 22: 3099-31088; (1973).
Turning to `Cc1cc(C2(c3cc(C)c(O)c(C)c3)C(=O)N(Cc3noc(C4CCC4)n3)c3ccccc32)cc(C)c1O` [Example 86, 1-(5-Cyclobutyl-[1,2,4]oxadiazol-3-ylmethyl)-3,3-bis-(4-hydroxy-3,5-dimethyl-phenyl)-1,3-dihydro-indol-2-one], the Ki – broadly, a measure of affinity in units of concentration, obtained from inhibition or displacement – was at most 500 nM. Take `Cc1cc(C2(c3cc(C)c(O)c(C)c3)C(=O)N(Cc3ccc(C(F)(F)F)cc3C(F)(F)F)c3ccccc32)cc(C)c1O` [Example 68, 1-(2,4-Bis-trifluoromethyl-benzyl)-3,3-bis-(4-hydroxy-3,5-dimethyl-phenyl)-1,3-dihydro-indol-2-one]: the Ki is at most 1000 nM. Take `Cc1cc(C2(c3cc(C)c(O)c(C)c3)C(=O)N(Cc3csc(-c4ccccc4)n3)c3ccccc32)cc(C)c1O` [Example 91, 3,3-Bis-(4-hydroxy-3,5-dimethyl-phenyl)-1-(2-phenyl-thiazol-4-ylmethyl)-1,3-dihydro-indol-2-one]: the Ki is at most 10000 nM. To `CCCN1C(=O)C(c2cc(C)c(O)c(C)c2)(c2cc(C)c(O)c(C)c2)c2ccccc21` [Example 5, 3,3-Bis-(4-hydroxy-3,5-dimethyl-phenyl)-1-propyl-1,3-dihydro-indol-2-one] belongs at most 500 nM; to `Cc1cc(C2(c3cc(C)c(O)c(C)c3)C(=O)N(Cc3ccc(Br)cc3)c3ccccc32)cc(C)c1O` [Example 58, 1-(4-Bromo-benzyl)-3,3-bis-(4-hydroxy-3,5-dimethyl-phenyl)-1,3-dihydro-indol-2-one], at most 500 nM. For `Cc1cc(C2(c3cc(C)c(O)c(C)c3)C(=O)N(C)c3ccccc32)cc(C)c1O` [Example 4, 3,3-Bis-(4-hydroxy-3,5-dimethyl-phenyl)-1-methyl-1,3-dihydro-indol-2-one], the Ki is at most 500 nM. As for `Cc1cc(C2(c3cc(C)c(O)c(C)c3)C(=O)N(Cc3ccccc3Cl)c3cccc(Cl)c32)cc(C)c1O` [Example 26, 4-Chloro-1-(2-chloro-benzyl)-3,3-bis-(4-hydroxy-3,5-dimethyl-phenyl)-1,3-dihydro-indol-2-one], the Ki was at most 500 nM. To `Cc1ccc2c(c1)C(c1cc(C)c(O)c(C)c1)(c1cc(C)c(O)c(C)c1)C(=O)N2Cc1ccccc1` [Example 17, 1-Benzyl-3,3-bis-(4-hydroxy-3,5-dimethyl-phenyl)-5-methyl-1,3-dihydro-indol-2-one] belongs at most 500 nM; to `Cc1ccc2c(c1)C(c1cc(C)c(O)c(C)c1)(c1cc(C)c(O)c(C)c1)C(=O)N2Cc1ccccc1C` [Example 21, 3,3-Bis-(4-hydroxy-3,5-dimethyl-phenyl)-5-methyl-1-(2-methyl-benzyl)-1,3-dihydro-indol-2-one], at most 500 nM; to `Cc1ccc2c(c1)C(c1cc(C)c(O)c(C)c1)(c1cc(C)c(O)c(C)c1)C(=O)N2Cc1ccccc1C#N` [Example 23, 2-[3,3-Bis-(4-hydroxy-3,5-dimethyl-phenyl)-5-methyl-2-oxo-2,3-dihydro-indol-1-ylmethyl]-benzonitrile], at most 500 nM. Under `Cc1cc(C2(c3cc(C)c(O)c(C)c3)C(=O)N(Cc3ccccc3C(F)(F)F)c3ccccc32)cc(C)c1O` [Example 53, 3,3-Bis-(4-hydroxy-3,5-dimethyl-phenyl)-1-(2-trifluoromethyl-benzyl)-1,3-dihydro-indol-2-one] stands at most 1000 nM; under `Cc1ccc(N2C(=O)C(c3cc(C)c(O)c(C)c3)(c3cc(C)c(O)c(C)c3)c3ccccc32)cc1` [Example 125, 3,3-Bis-(4-hydroxy-3,5-dimethyl-phenyl)-1-p-tolyl-1,3-dihydro-indol-2-one], at most 500 nM. On to `Cc1cccc(N2C(=O)C(c3cc(C)c(O)c(C)c3)(c3cc(C)c(O)c(C)c3)c3ccccc32)c1` [Example 133, 3,3-Bis-(4-hydroxy-3,5-dimethyl-phenyl)-1-m-tolyl-1,3-dihydro-indol-2-one], for which the Ki is at most 500 nM. To `Cc1cc(C2(c3cc(C)c(O)c(C)c3)C(=O)N(c3cccc(C(C)C)c3)c3ccccc32)cc(C)c1O` [Example 138, 3,3-Bis-(4-hydroxy-3,5-dimethyl-phenyl)-1-(3-isopropyl-phenyl)-1,3-dihydro-indol-2-one] belongs at most 500 nM; to `Cc1cc(C2(c3cc(C)c(O)c(C)c3)C(=O)N(c3ccc(C(F)(F)F)cc3)c3ccccc32)cc(C)c1O` [Example 131, 3,3-Bis-(4-hydroxy-3,5-dimethyl-phenyl)-1-(4-trifluoromethyl-phenyl)-1,3-dihydro-indol-2-one], at most 500 nM. Under `Cc1cc(C2(c3cc(C)c(O)c(C)c3)C(=O)N(CC#N)c3ccccc32)cc(C)c1O` [Example 78, [3,3-Bis-(4-hydroxy-3,5-dimethyl-phenyl)-2-oxo-2,3-dihydro-indol-1-yl]-acetonitrile] stands at most 500 nM; under `Cc1cc(C2(c3cc(C)c(O)c(C)c3)C(=O)N(Cc3ccccc3[N+](=O)[O-])c3ccccc32)cc(C)c1O` [Example 65, 3,3-Bis-(4-hydroxy-3,5-dimethyl-phenyl)-1-(2-nitro-benzyl)-1,3-dihydro-indol-2-one], at most 500 nM. Under `Cc1cc(C2(c3cc(C)c(O)c(C)c3)C(=O)N(Cc3ccc([N+](=O)[O-])cc3)c3ccccc32)cc(C)c1O` [Example 62, 3,3-Bis-(4-hydroxy-3,5-dimethyl-phenyl)-1-(4-nitro-benzyl)-1,3-dihydro-indol-2-one] stands at most 500 nM; under `Cc1cc(C2(c3cc(C)c(O)c(C)c3)C(=O)N(Cc3ccncc3)c3ccccc32)cc(C)c1O` [Example 111, 3,3-Bis-(4-hydroxy-3,5-dimethyl-phenyl)-1-pyridin-4-ylmethyl-1,3-dihydro-indol-2-one], at most 500 nM. As to `Cc1cc(C2(c3cc(C)c(O)c(C)c3)C(=O)N(Cc3cccc([N+](=O)[O-])c3)c3ccccc32)cc(C)c1O` [Example 85, 3,3-Bis-(4-hydroxy-3,5-dimethyl-phenyl)-1-(3-nitro-benzyl)-1,3-dihydro-indol-2-one], the Ki is at most 500 nM. To `Cc1cc(C2(c3cc(C)c(O)c(C)c3)C(=O)N(CC3CCCCC3)c3ccccc32)cc(C)c1O` [Example 6, 1-Cyclohexylmethyl-3,3-bis-(4-hydroxy-3,5-dimethyl-phenyl)-1,3-dihydro-indol-2-one] belongs at most 500 nM; to `Cc1cc(C2(c3cc(C)c(O)c(C)c3)C(=O)N(Cc3ccccc3Cl)c3c(C)cccc32)cc(C)c1O` [Example 24, 1-(2-Chloro-benzyl)-3,3-bis-(4-hydroxy-3,5-dimethyl-phenyl)-7-methyl-1,3-dihydro-indol-2-one], at most 1000 nM; to `COC(=O)c1ccc(CN2C(=O)C(c3cc(C)c(O)c(C)c3)(c3cc(C)c(O)c(C)c3)c3ccccc32)o1` [Example 108, 5-[3,3-Bis-(4-hydroxy-3,5-dimethyl-phenyl)-2-oxo-2,3-dihydro-indol-1-ylmethyl]-furan-2-carboxylic acid methyl ester], at most 500 nM. To `CCc1cccc2c1N(Cc1ccccc1Cl)C(=O)C2(c1cc(C)c(O)c(C)c1)c1cc(C)c(O)c(C)c1` [Example 25, 1-(2-Chloro-benzyl)-7-ethyl-3,3-bis-(4-hydroxy-3,5-dimethyl-phenyl)-1,3-dihydro-indol-2-one] belongs at most 1000 nM; to `COc1ccc(-c2nc(CN3C(=O)C(c4cc(C)c(O)c(C)c4)(c4cc(C)c(O)c(C)c4)c4ccccc43)cs2)cc1` [Example 94, 3,3-Bis-(4-hydroxy-3,5-dimethyl-phenyl)-1-[2-(4-methoxy-phenyl)-thiazol-4-ylmethyl]-1,3-dihydro-indol-2-one], at most 10000 nM.
